# Experimental data from patent US20050215551A1, “1-[2H-1-benzopyran-2-one-8-yl]- piperazine derivatives for the treatment of movement disorders” (SOLVAY PHARMACEUTICALS B.V., priority 2004, published 2005).
# Assays:
# DBA/2 mice = assay: Interaction studies in DBA/2 mice: Compound 1 + vehicle, sumatriptan or SB 258741 (audiogenic seizures); format: in vivo; conditions: for Percentage of animal response, Clonic seizures / Percentage of animal response, Tonic extension: 30 min
# Protocol: The experiments are performed according to the method previously described by De Sarro et al. (1984), Eur. J. Pharmacol., 104, 55-60. Compounds of the invention or vehicle (controls) are given intraperitoneally (i.p.) and orally (p.o.) as freshly sonicated solutions in methylcellulose 1%. For the i.p. treatment compounds of the invention are given at doses of 0.1, 0.3, 3, 10, 15, 20 and 30 mg/kg; pretreatment time at 30 and 60 min., For oral treatment, all animals are pretreated either at 30 or 60 min using the compounds of the invention at doses of 0.1, 0.3, 3, 6 and 10 mg/kg p.o. At least 10 mice per dose are used. After pretreatment time, each mouse is placed under a hemispheric perspex dome (58 cm in diameter) and 1 min is allowed for habituation and assessment of locomotor activity. Animals are challenged with a 12-16 kHz sinusoidal tone at 109 dB. Seizure response is assessed by two independent observers. The sound evoked behaviour is coded using the following scale: 0=no response, 1=wild running, 2=clonus, 3=tonic flexor and/or extensor; 4=respiratory arrest, on the basis of the concordant opinion of the observers. […] The maximum response is recorded for each animal. Rectal temperature is recorded immediately prior to auditory testing using an Elektrolaboratoriet thermometer type T.E.3. Behavioral changes are observed during the period between drug administration and auditory testing. In these experiments separate vehicle-treated and drug-treated groups are used at each pretreatment time (15 min-60 min). Percentage of mice showing wild running, clonic or tonic phase and the duration of anticonvulsant activity are compared to control group and statistically analyzed.
# 5-HT1A = 5-HT1A (Homo sapiens, UniProt P08908); assay: Receptor binding 5-HT1A; conditions: radioligand [3H]-8-OH-DPAT, read-out: Ki(nM) Compound 1
# β3-adrenergic = β3-adrenergic (Homo sapiens, UniProt P13945); assay: Receptor binding β3-adrenergic; conditions: radioligand [125I]-iodocyanopindolol, read-out: Ki(nM) Compound 1
# Protocol: (§1) Receptor binding data were obtained by CEREP (128, rue Danton, 92500 Rueil-Malmaison, France) or at Solvay Pharmaceuticals B.V., using well documented standard procedures. Affinity for 5-HT1A receptors for instance, was determined by testing the ability of the compounds of the invention to displace [^3H]-2-(di-n-propylamino)-8-hydroxytetralin ([^3H]-8-OH-DPAT) from its specific binding sites in rat frontal cortex homogenates. This test is based on the method described by Gozlan et al. (Nature, 305, (1983), pages 140-142).
# (§2) The binding data collected in the table below were either obtained by CEREP (128, rue Danton, 92500 Rueil-Malmaison, France) or at Solvay Pharmaceuticals B.V., using well documented standard procedures.
# Dopamine-D2 = Dopamine-D2 (Homo sapiens, UniProt P14416); assay: Receptor binding Dopamine-D2; conditions: radioligand [3H]-spiperone, read-out: Ki(nM) Compound 1
# Protocol: as §1, §2
# Muscarine-M4 = Muscarine-M4 (Homo sapiens, UniProt P08173); assay: Receptor binding Muscarine-M4; conditions: radioligand [3H]-4-DAMP, read-out: Ki(nM) Compound 1
# Protocol: as §1, §2
# μ-opiate = μ-opiate (Rattus norvegicus, UniProt P33535); assay: Receptor binding μ-opiate; conditions: radioligand [3H]-DAMGO, read-out: Ki(nM) Compound 1
# Protocol: as §1, §2
# cannabinoid-CB1 = cannabinoid-CB1 (Homo sapiens, UniProt P21554); assay: Receptor binding cannabinoid-CB1; conditions: radioligand [3H]-WIN 55,212-2, read-out: Ki(nM) Compound 1
# Protocol: as §1, §2
# Ca++-channel = Ca++-channel (Rattus norvegicus, UniProt Q02294); assay: biochemical; format: binding
# Adenosine-A1 = Adenosine-A1 (Homo sapiens, UniProt P30542); assay: Receptor binding Adenosine-A1; conditions: radioligand [3H]-DPCPX, read-out: Ki(nM) Compound 1
# Protocol: as §1, §2
# CCKB = CCKB (Homo sapiens, UniProt P32239); assay: Receptor binding CCKB; conditions: radioligand [3H]-CCK8, read-out: Ki(nM) Compound 1
# Protocol: as §1, §2
# CGRP = CGRP (Homo sapiens, UniProt O60894+Q16602); assay: Receptor binding CGRP; conditions: radioligand [125I]-CGRPa, read-out: Ki(nM) Compound 1
# Protocol: as §1, §2
# Galanin-GAL2 = Galanin-GAL2 (Homo sapiens, UniProt O43603); assay: Receptor binding Galanin-GAL2; conditions: radioligand [125I]-galanin, read-out: Ki(nM) Compound 1
# Protocol: as §1, §2
# Interleukine-6 = Interleukine-6 (Homo sapiens, UniProt P08887); assay: Receptor binding Interleukine-6; conditions: radioligand [125I]-interleukine-6, read-out: Ki(nM) Compound 1
# Protocol: as §1, §2
# LTB4 = LTB4 (Cavia porcellus, UniProt H0VYV8); assay: Receptor binding LTB4; conditions: radioligand [3H]-LTB4; guinea pig; read-out: Ki(nM) Compound 1
# Protocol: as §1, §2
# LTD4 = LTD4 (Cavia porcellus, UniProt Q2NNR5); assay: Receptor binding LTD4; conditions: radioligand [3H]-LTD4; guinea pig; read-out: Ki(nM) Compound 1
# Protocol: as §1, §2
# Neuropeptide Y1 = Neuropeptide Y1 (Homo sapiens, UniProt P25929); assay: Receptor binding Neuropeptide Y1; conditions: radioligand [125I]-PYY, read-out: Ki(nM) Compound 1
# Protocol: as §1, §2
# VIP1 = VIP1 (Homo sapiens, UniProt P32241); assay: Receptor binding VIP1; conditions: radioligand [125I]-VIP, read-out: Ki(nM) Compound 1
# Protocol: as §1, §2
# [1] = dose of Compound 1 0.3 mg/kg i.p.
# [2] = dose of Compound 1 3 mg/kg i.p.
# [3] = dose of Compound 1 10 mg/kg i.p.
# [4] = dose of Compound 1 15 mg/kg i.p.
# [5] = dose of Compound 1 20 mg/kg i.p.
# Chain of Ca++-channel (Q02294 whole entry): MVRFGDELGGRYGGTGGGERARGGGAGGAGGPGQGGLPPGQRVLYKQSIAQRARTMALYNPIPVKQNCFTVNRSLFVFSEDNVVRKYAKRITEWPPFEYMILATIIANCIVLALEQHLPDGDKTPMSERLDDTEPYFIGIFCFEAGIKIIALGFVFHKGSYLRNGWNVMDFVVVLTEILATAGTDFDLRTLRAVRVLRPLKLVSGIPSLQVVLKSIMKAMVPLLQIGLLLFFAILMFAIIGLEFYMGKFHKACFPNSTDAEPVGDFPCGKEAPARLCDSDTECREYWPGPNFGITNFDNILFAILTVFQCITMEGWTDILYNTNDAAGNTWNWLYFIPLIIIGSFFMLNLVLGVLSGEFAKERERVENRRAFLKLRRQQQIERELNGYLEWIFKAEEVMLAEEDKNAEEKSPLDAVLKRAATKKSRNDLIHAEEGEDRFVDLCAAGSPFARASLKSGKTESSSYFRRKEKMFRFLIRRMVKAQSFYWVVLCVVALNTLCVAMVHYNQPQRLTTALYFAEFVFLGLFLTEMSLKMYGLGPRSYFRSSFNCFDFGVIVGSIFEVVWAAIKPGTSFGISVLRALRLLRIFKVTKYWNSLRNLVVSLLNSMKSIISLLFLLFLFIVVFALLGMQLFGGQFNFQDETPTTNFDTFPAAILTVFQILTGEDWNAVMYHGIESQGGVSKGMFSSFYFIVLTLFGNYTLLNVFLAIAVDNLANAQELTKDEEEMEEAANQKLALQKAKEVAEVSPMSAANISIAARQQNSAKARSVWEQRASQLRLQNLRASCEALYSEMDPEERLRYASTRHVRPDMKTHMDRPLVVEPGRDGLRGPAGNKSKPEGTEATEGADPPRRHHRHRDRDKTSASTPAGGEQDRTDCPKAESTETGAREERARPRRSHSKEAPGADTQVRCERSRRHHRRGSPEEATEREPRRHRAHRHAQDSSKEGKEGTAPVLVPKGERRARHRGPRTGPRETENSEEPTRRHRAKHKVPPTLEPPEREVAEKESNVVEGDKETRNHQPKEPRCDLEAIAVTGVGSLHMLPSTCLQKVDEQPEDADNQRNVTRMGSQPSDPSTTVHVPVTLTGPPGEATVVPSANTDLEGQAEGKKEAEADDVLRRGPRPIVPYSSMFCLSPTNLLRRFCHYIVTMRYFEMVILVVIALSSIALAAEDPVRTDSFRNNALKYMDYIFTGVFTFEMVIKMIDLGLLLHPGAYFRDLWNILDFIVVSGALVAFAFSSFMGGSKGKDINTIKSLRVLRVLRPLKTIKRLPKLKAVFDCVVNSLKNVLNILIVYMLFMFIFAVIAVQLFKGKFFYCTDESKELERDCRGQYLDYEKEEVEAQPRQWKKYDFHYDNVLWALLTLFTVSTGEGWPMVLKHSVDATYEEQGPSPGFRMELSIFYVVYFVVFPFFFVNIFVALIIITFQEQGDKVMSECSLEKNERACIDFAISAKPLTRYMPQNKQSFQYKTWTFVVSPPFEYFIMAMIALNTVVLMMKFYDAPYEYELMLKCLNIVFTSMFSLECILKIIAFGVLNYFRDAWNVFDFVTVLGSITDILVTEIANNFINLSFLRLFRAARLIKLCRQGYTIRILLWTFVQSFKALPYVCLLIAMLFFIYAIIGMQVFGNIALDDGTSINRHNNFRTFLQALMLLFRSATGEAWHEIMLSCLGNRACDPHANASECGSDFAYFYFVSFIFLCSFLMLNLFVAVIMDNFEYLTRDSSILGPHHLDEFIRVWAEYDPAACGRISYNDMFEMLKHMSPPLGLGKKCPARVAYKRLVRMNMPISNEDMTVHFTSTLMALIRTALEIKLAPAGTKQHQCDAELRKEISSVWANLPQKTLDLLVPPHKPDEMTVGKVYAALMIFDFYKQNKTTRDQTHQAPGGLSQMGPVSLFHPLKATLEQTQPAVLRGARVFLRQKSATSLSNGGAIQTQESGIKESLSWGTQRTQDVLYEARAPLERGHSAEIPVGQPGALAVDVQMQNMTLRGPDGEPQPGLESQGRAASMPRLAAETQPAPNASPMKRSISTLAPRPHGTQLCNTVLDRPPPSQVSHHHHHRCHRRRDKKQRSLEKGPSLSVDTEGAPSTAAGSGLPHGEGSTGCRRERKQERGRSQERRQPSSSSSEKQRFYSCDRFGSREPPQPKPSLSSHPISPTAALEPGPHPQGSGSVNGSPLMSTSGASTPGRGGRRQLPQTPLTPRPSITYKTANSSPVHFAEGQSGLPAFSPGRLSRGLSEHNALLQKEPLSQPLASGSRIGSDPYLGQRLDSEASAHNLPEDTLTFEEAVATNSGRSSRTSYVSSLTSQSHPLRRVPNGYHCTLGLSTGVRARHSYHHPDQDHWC
# Chain of Ca++-channel (P54287 whole entry partner): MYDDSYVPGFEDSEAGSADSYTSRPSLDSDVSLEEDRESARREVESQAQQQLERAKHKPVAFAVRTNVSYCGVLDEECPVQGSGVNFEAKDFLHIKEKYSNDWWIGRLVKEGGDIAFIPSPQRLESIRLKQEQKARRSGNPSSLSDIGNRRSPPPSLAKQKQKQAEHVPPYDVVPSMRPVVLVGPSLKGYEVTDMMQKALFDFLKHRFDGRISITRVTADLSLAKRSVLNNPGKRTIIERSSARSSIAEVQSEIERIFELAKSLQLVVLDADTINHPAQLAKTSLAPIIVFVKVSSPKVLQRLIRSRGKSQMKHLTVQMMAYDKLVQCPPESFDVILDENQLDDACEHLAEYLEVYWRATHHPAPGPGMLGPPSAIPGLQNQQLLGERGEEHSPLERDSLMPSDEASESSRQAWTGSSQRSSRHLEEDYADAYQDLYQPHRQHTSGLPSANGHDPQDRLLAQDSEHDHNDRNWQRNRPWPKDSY
# Chain of VIP1 (P32241 31-457): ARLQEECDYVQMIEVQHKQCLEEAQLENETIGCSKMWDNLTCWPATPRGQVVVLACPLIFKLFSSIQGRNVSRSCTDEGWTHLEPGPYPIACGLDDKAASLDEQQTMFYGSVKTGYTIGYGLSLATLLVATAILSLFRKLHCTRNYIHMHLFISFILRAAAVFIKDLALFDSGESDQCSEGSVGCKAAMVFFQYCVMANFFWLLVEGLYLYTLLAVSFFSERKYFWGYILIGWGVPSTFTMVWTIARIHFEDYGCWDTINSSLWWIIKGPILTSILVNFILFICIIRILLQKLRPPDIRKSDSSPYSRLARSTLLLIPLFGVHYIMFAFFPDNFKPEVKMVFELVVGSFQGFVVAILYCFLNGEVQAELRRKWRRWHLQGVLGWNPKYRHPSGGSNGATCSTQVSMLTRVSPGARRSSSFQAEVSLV
# Chain of μ-opiate (P33535 whole entry): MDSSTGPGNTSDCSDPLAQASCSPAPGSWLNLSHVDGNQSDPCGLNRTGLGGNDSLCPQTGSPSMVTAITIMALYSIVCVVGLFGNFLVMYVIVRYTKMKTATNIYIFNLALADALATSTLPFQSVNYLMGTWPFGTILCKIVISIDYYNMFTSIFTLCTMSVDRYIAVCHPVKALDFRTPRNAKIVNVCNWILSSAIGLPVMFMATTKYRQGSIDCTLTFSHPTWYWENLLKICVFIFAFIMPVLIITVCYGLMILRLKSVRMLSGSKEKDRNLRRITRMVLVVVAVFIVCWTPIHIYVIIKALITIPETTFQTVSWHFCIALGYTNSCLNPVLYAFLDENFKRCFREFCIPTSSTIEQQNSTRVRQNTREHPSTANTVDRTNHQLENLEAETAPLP
# Chain of CCKB (P32239 whole entry): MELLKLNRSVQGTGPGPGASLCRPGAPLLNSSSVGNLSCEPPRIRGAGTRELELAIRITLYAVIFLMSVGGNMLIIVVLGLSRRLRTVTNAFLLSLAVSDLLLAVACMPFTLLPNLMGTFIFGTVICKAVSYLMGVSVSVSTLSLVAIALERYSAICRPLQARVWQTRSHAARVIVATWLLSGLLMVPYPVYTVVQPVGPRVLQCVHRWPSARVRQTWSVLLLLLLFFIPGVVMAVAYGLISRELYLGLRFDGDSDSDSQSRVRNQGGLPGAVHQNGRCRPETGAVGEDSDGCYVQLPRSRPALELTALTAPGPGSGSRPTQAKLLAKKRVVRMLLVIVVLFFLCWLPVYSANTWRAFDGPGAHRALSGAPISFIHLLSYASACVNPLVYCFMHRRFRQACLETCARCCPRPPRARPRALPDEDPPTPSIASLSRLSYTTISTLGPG
# Chain of β3-adrenergic (P13945 whole entry): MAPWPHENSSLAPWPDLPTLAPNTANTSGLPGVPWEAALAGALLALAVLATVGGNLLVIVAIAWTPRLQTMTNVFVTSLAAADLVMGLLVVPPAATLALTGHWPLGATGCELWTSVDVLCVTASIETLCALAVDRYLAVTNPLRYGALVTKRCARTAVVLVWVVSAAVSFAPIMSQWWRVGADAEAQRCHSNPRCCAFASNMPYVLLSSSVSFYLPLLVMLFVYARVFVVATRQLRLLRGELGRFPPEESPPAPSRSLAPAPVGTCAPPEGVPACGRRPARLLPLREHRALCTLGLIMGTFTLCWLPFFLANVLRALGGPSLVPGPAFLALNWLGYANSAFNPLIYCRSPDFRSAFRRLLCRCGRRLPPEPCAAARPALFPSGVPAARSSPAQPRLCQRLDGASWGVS
# Chain of Dopamine-D2 (P14416 whole entry): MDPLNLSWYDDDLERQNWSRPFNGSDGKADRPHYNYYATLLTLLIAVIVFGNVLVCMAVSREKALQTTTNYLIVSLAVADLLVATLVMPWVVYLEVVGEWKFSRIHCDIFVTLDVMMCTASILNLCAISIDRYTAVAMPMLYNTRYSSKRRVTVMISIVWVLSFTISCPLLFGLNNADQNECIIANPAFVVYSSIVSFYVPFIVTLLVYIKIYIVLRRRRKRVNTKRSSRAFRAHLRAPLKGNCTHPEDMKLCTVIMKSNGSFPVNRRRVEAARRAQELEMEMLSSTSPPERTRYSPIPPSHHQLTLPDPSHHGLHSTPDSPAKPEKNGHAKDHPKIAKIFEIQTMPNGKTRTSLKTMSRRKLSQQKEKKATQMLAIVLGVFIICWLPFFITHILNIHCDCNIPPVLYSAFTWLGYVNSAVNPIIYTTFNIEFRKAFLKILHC
smiles,measurement,setting,value
"Nc1cc2cccc(N3CCNCC3)c2oc1=O [Compound 1, 3-amino-8-(1-piperazinyl)-2H-1-benzopyran-2-one]","Percentage of animal response, Clonic seizures",DBA/2 mice; [1],90%
same,"Percentage of animal response, Tonic extension",DBA/2 mice; [1],60%
same,"Percentage of animal response, Clonic seizures",DBA/2 mice; [2],80%
same,"Percentage of animal response, Tonic extension",DBA/2 mice; [2],40%
same,"Percentage of animal response, Clonic seizures",DBA/2 mice; [3],40%
same,"Percentage of animal response, Tonic extension",DBA/2 mice; [3],0%
same,"Percentage of animal response, Clonic seizures",DBA/2 mice; [4],20%
same,"Percentage of animal response, Tonic extension",DBA/2 mice; [4],0%
same,"Percentage of animal response, Clonic seizures",DBA/2 mice; [5],10%
same,"Percentage of animal response, Tonic extension",DBA/2 mice; [5],0%
same,behavioural changes,"DBA/2 mice; i.p., all dosages tested",At none of the dosages tested
same,Ki,5-HT1A,0.25 nM
same,Ki,β3-adrenergic,> 1000 nM
same,Ki,Dopamine-D2,> 1000 nM
same,Ki,Muscarine-M4,> 1000 nM
same,Ki,μ-opiate,> 1000 nM
same,Ki,cannabinoid-CB1,> 10000 nM
same,Ki,Ca++-channel,> 1000 nM
same,Ki,Adenosine-A1,> 1000 nM
same,Ki,CCKB,> 1000 nM
same,Ki,CGRP,> 1000 nM
same,Ki,Galanin-GAL2,> 1000 nM
same,Ki,Interleukine-6,> 10000 nM
same,Ki,LTB4,> 10000 nM
same,Ki,LTD4,> 10000 nM
same,Ki,Neuropeptide Y1,> 1000 nM
same,Ki,VIP1,> 1000 nM
